According to the supplement of paper PMC10307832:

How the values were obtained:
Experiment in all cases: relative viability (nuclei count vs DMSO), 5 days (fraction); higher = more cells survive
[1] = compound: O=C(Nc1cc(C(F)(F)F)cc(C(F)(F)F)c1)c1cc(Cl)ccc1O [IMD-0354] + O=C(c1cc(Cc2n[nH]c(=O)c3ccccc23)ccc1F)N1CCN(C(=O)C2CC2)CC1 [Olaparib] (partner 8 µM)
How it was run: (§1)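 After 5 days of treatment, lung cancer cells in 1536-well plates were fixed and stained in a single step (final 0.05% Triton X-100, 1% formaldehyde, 1 ug/ml Hoechst) and their nuclei counted on 4× images. Treatment had been applied by pin tool the day after seeding as one drug alone or as a fixed anchor-drug dose with five library-drug doses (not always all listed) in √10 steps. Relative viability is the nuclei count of treated wells divided by that of vehicle wells, and values are medians of duplicate plates.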

[2] = compound: Cc1cnc(CNC(=O)c2c(=O)c3ccc(N4CCCN(C)CC4)nc3n3c2sc2ccccc23)cn1 [CX-5461] + CC(=O)c1c(C)c2cnc(Nc3ccc(N4CCNCC4)cn3)nc2n(C2CCCC2)c1=O [Palbociclib] (partner 0.5 µM)
How it was run: as §1

[3] = compound: O=C(Nc1cc(C(F)(F)F)cc(C(F)(F)F)c1)c1cc(Cl)ccc1O [IMD-0354] + CC(=O)c1c(C)c2cnc(Nc3ccc(N4CCNCC4)cn3)nc2n(C2CCCC2)c1=O [Palbociclib] (partner 0.5 µM)
How it was run: as §1

[4] = compound: O=C(Nc1cc(C(F)(F)F)cc(C(F)(F)F)c1)c1cc(Cl)ccc1O [IMD-0354] + CS(=O)(=O)N1CCN(Cc2cc3nc(-c4cccc5[nH]ncc45)nc(N4CCOCC4)c3s2)CC1 [Pictilisib] (partner 1 µM)
How it was run: as §1

Cell Line: NCI-H1755
- relative viability ([1]; first compound 0.04 µM): 0.782
- relative viability ([1]; first compound 0.1265 µM): 0.907
- relative viability ([1]; first compound 0.4 µM): 0.707
- relative viability ([1]; first compound 1.265 µM): 0.585
- relative viability ([1]; first compound 4 µM): 0.23
- relative viability ([2]; first compound 0.01 µM): 0.434
- relative viability ([2]; first compound 0.03162 µM): 0.449
- relative viability ([2]; first compound 0.1 µM): 0.431
- relative viability ([2]; first compound 0.3162 µM): 0.447
- relative viability ([2]; first compound 1 µM): 0.466
- relative viability ([3]; first compound 0.04 µM): 0.448
- relative viability ([3]; first compound 0.1265 µM): 0.456
- relative viability ([3]; first compound 0.4 µM): 0.419
- relative viability ([3]; first compound 1.265 µM): 0.396
- relative viability ([3]; first compound 4 µM): 0.224
- relative viability ([4]; first compound 0.04 µM): 0.562
- relative viability ([4]; first compound 0.1265 µM): 0.422
- relative viability ([4]; first compound 0.4 µM): 0.335
- relative viability ([4]; first compound 1.265 µM): 0.232
- relative viability ([4]; first compound 4 µM): 0.22

Cell Line: NCI-H1792
- relative viability ([1]; first compound 0.04 µM): 0.393
- relative viability ([1]; first compound 0.1265 µM): 0.389
- relative viability ([1]; first compound 0.4 µM): 0.236
- relative viability ([1]; first compound 1.265 µM): 0.21
- relative viability ([1]; first compound 4 µM): 0.172
- relative viability ([2]; first compound 0.01 µM): 0.608
- relative viability ([2]; first compound 0.03162 µM): 0.719
- relative viability ([2]; first compound 0.1 µM): 0.736
- relative viability ([2]; first compound 0.3162 µM): 0.736
- relative viability ([2]; first compound 1 µM): 0.602
- relative viability ([3]; first compound 0.04 µM): 0.69
- relative viability ([3]; first compound 0.1265 µM): 0.61
- relative viability ([3]; first compound 0.4 µM): 0.258
- relative viability ([3]; first compound 1.265 µM): 0.579
- relative viability ([3]; first compound 4 µM): 0.431
- relative viability ([4]; first compound 0.04 µM): 0.298
- relative viability ([4]; first compound 0.1265 µM): 0.225
- relative viability ([4]; first compound 0.4 µM): 0.622
- relative viability ([4]; first compound 1.265 µM): 0.203
- relative viability ([4]; first compound 4 µM): 0.204

Cell Line: NCI-H1793
- relative viability ([1]; first compound 0.04 µM): 0.856
- relative viability ([1]; first compound 0.1265 µM): 0.797
- relative viability ([1]; first compound 0.4 µM): 0.399
- relative viability ([1]; first compound 1.265 µM): 0.213
- relative viability ([1]; first compound 4 µM): 0.251
- relative viability ([2]; first compound 0.01 µM): 0.307
- relative viability ([2]; first compound 0.03162 µM): 0.306
- relative viability ([2]; first compound 0.1 µM): 0.345
- relative viability ([2]; first compound 0.3162 µM): 0.32
- relative viability ([2]; first compound 1 µM): 0.283
- relative viability ([3]; first compound 0.04 µM): 0.298
- relative viability ([3]; first compound 0.1265 µM): 0.317
- relative viability ([3]; first compound 0.4 µM): 0.211
- relative viability ([3]; first compound 1.265 µM): 0.191
- relative viability ([3]; first compound 4 µM): 0.225
- relative viability ([4]; first compound 0.04 µM): 0.357
- relative viability ([4]; first compound 0.1265 µM): 0.319
- relative viability ([4]; first compound 0.4 µM): 0.235
- relative viability ([4]; first compound 1.265 µM): 0.172
- relative viability ([4]; first compound 4 µM): 0.206

Cell Line: NCI-H1915
- relative viability ([1]; first compound 0.04 µM): 0.264
- relative viability ([1]; first compound 0.1265 µM): 0.263
- relative viability ([1]; first compound 0.4 µM): 0.235
- relative viability ([1]; first compound 1.265 µM): 0.175
- relative viability ([1]; first compound 4 µM): 0.136
- relative viability ([2]; first compound 0.01 µM): 0.542
- relative viability ([2]; first compound 0.03162 µM): 0.534
- relative viability ([2]; first compound 0.1 µM): 0.564
- relative viability ([2]; first compound 0.3162 µM): 0.53
- relative viability ([2]; first compound 1 µM): 0.543
- relative viability ([3]; first compound 0.04 µM): 0.461
- relative viability ([3]; first compound 0.1265 µM): 0.489
- relative viability ([3]; first compound 0.4 µM): 0.424
- relative viability ([3]; first compound 1.265 µM): 0.234
- relative viability ([3]; first compound 4 µM): 0.143
- relative viability ([4]; first compound 0.04 µM): 0.68
- relative viability ([4]; first compound 0.1265 µM): 1.02
- relative viability ([4]; first compound 0.4 µM): 0.671
- relative viability ([4]; first compound 1.265 µM): 0.33
- relative viability ([4]; first compound 4 µM): 0.199

Cell Line: NCI-H1944
- relative viability ([1]; first compound 0.04 µM): 0.377
- relative viability ([1]; first compound 0.1265 µM): 0.331
- relative viability ([1]; first compound 0.4 µM): 0.3
- relative viability ([1]; first compound 1.265 µM): 0.302
- relative viability ([1]; first compound 4 µM): 0.191
- relative viability ([2]; first compound 0.01 µM): 0.335
- relative viability ([2]; first compound 0.03162 µM): 0.362
- relative viability ([2]; first compound 0.1 µM): 0.338
- relative viability ([2]; first compound 0.3162 µM): 0.294
- relative viability ([2]; first compound 1 µM): 0.317
- relative viability ([3]; first compound 0.04 µM): 0.289
- relative viability ([3]; first compound 0.1265 µM): 0.324
- relative viability ([3]; first compound 0.4 µM): 0.341
- relative viability ([3]; first compound 1.265 µM): 0.382
- relative viability ([3]; first compound 4 µM): 0.139
- relative viability ([4]; first compound 0.04 µM): 0.351
- relative viability ([4]; first compound 0.1265 µM): 0.341
- relative viability ([4]; first compound 1.265 µM): 0.234
- relative viability ([4]; first compound 4 µM): 0.151

Cell Line: NCI-H1975
- relative viability ([1]; first compound 0.04 µM): 1.07
- relative viability ([1]; first compound 0.1265 µM): 0.912
- relative viability ([1]; first compound 0.4 µM): 0.437
- relative viability ([1]; first compound 1.265 µM): 0.191
- relative viability ([1]; first compound 4 µM): 0.18
- relative viability ([2]; first compound 0.01 µM): 0.788
- relative viability ([2]; first compound 0.03162 µM): 0.553
- relative viability ([2]; first compound 0.1 µM): 0.665
- relative viability ([2]; first compound 0.3162 µM): 0.826
- relative viability ([2]; first compound 1 µM): 0.382
- relative viability ([3]; first compound 0.04 µM): 0.752
- relative viability ([3]; first compound 0.1265 µM): 0.569
- relative viability ([3]; first compound 0.4 µM): 0.306
- relative viability ([3]; first compound 1.265 µM): 0.165
- relative viability ([3]; first compound 4 µM): 0.178
- relative viability ([4]; first compound 0.04 µM): 0.329
- relative viability ([4]; first compound 0.1265 µM): 0.316
- relative viability ([4]; first compound 0.4 µM): 0.26
- relative viability ([4]; first compound 1.265 µM): 0.155
- relative viability ([4]; first compound 4 µM): 0.137

Cell Line: NCI-H1993
- relative viability ([1]; first compound 0.04 µM): 0.917
- relative viability ([1]; first compound 0.1265 µM): 0.982
- relative viability ([1]; first compound 0.4 µM): 0.819
- relative viability ([1]; first compound 1.265 µM): 0.651
- relative viability ([1]; first compound 4 µM): 0.541
- relative viability ([2]; first compound 0.01 µM): 0.686
- relative viability ([2]; first compound 0.03162 µM): 0.627
- relative viability ([2]; first compound 0.1 µM): 0.699
- relative viability ([2]; first compound 0.3162 µM): 0.583
- relative viability ([2]; first compound 1 µM): 0.614
- relative viability ([3]; first compound 0.04 µM): 0.657
- relative viability ([3]; first compound 0.1265 µM): 0.384
- relative viability ([3]; first compound 0.4 µM): 0.501
- relative viability ([3]; first compound 1.265 µM): 0.443
- relative viability ([3]; first compound 4 µM): 0.406
- relative viability ([4]; first compound 0.04 µM): 0.773
- relative viability ([4]; first compound 0.1265 µM): 0.783
- relative viability ([4]; first compound 0.4 µM): 0.706
- relative viability ([4]; first compound 1.265 µM): 0.617
- relative viability ([4]; first compound 4 µM): 0.662

Cell Line: NCI-H2009
- relative viability ([1]; first compound 0.04 µM): 0.625
- relative viability ([1]; first compound 0.1265 µM): 0.694
- relative viability ([1]; first compound 0.4 µM): 0.591
- relative viability ([1]; first compound 1.265 µM): 0.366
- relative viability ([1]; first compound 4 µM): 0.115
- relative viability ([2]; first compound 0.01 µM): 0.214
- relative viability ([2]; first compound 0.03162 µM): 0.201
- relative viability ([2]; first compound 0.1 µM): 0.272
- relative viability ([2]; first compound 0.3162 µM): 0.215
- relative viability ([2]; first compound 1 µM): 0.16
- relative viability ([3]; first compound 0.04 µM): 0.179
- relative viability ([3]; first compound 0.1265 µM): 0.222
- relative viability ([3]; first compound 0.4 µM): 0.191
- relative viability ([3]; first compound 1.265 µM): 0.103
- relative viability ([3]; first compound 4 µM): 0.112
- relative viability ([4]; first compound 0.04 µM): 1
- relative viability ([4]; first compound 0.1265 µM): 0.844
- relative viability ([4]; first compound 0.4 µM): 0.618
- relative viability ([4]; first compound 1.265 µM): 0.114
- relative viability ([4]; first compound 4 µM): 0.0666
